Measurements published in patent publication US10919852B2, “Immunomodulator compounds” (CHEMOCENTRYX, INC., priority 2017, dated 2021).

Biological target: human PD-L1 / Human PD-1 (Homo sapiens (Human), UniProt Q9NZQ7)
Assay: Enzyme-Linked Immunosorbent Assay (ELISA), PD-1/PD-L1 binding
Conditions: plate-coated human PD-L1, biotinylated human PD-1
Protocol: Biological Example: Enzyme-Linked Immunosorbent Assay—ELISA
96 Well plates were coated with […] of human PD-L1 (obtained from R&D) in PBS overnight at 4° C. The wells were then blocked with 2% BSA in PBS (W/V) with 0.05% TWEEN-20 for 1 hour at 37° C. The plates were washed 3 times with PBS/0.05% TWEEN-20 and the compounds were serial diluted (1:5) in dilution medium and added to the ELISA plates. Human PD-1 and biotin 0.3 μg/mL (ACRO Biosystems) were added and incubated for 1 hour at 37° C. then washed 3 times with PBS/0.05% TWEEN-20. A second block was performed with 2% BSA in PBS (W/V)/0.05% TWEEN-20 for 10 min at 37° C. and was washed 3 times with PBS/0.05% TWEEN-20. Streptavidin-HRP was added for 1 hour at 37° C. then washed 3 times with PBS/0.05% TWEEN-20. TMB substrate was added and reacted for 20 min at 37° C. A stop solution (2 N aqueous H2SO4) was added. The absorbance was read at 450 nm using a micro-plate spectrophotometer.

human PD-L1 / Human PD-1, sequence (Q9NZQ7 19-239): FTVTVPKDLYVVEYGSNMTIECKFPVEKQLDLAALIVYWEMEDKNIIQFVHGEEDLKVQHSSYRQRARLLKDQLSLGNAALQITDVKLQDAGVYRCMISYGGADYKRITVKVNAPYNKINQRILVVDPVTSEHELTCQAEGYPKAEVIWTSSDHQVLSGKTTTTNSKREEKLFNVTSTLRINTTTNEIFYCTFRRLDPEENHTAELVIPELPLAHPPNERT

IC50 [nM] | SMILES
< 5 | C[C@@](CO)(NCc1cc(Cl)c(O[C@@H]2c3cccc(-c4cccc(OCCCN5CC(O)C5)c4Cl)c3C[C@@H]2F)cc1OCc1cc(C#N)cc(C#N)c1)C(=O)O
< 5 | N#Cc1cncc(COc2cc(O[C@H]3CCc4c(-c5cccc(OCCCN6CCC(F)CC6)c5Cl)cccc43)c(Cl)cc2CNCC2CNC(=O)C2)c1 (stereo partly drawn)
5 to 500 | Cc1c(OCCCN2CCC(C)(F)CC2)cccc1-c1cccc2c1CC[C@@H]2Oc1cc(OCc2cc(C#N)cc(C#N)c2)c(CN[C@H]2CCC[C@@H]2O)cc1Cl
5 to 500 | Cc1c(OCCCN2CC[C@@H](F)C[C@@H]2C)cccc1-c1cccc2c1CC[C@@H]2Oc1cc(OCc2cc(C#N)cc(C#N)c2)c(CN[C@H]2CCC(=O)NC2)cc1Cl
< 5 | C[C@@H](O)[C@H](NCc1cc(Cl)c(O[C@H]2CCc3c(-c4cccc(OCCCN5CC(O)C5)c4Cl)cccc32)cc1OCc1cncc(C#N)c1)C(N)=O
< 5 | CCOc1cc(O[C@H]2CCc3c(-c4cccc(OCCCN(C)C(C)(C)C)c4C)cccc32)c(Cl)cc1CNC[C@@H]1CCC(=O)N1
< 5 | N#Cc1cncc(COc2cc(O[C@H]3CCc4c(-c5cccc(OCCCN6CCCCC6)c5Cl)cccc43)c(Cl)cc2CN[C@@H]2CCCC[C@@H]2O)c1
5 to 500 | CCOc1cc(O[C@H]2CCc3c(-c4cccc(OCCCN5CCC(F)CC5)c4Cl)cccc32)c(Cl)cc1CN[C@@H]1CCCC[C@@H]1O
< 5 | Cc1c(OCCCN2CCC(O)CC2)cccc1-c1cccc2c1CC[C@@H]2Oc1cc(OCc2cncc(C#N)c2)c(CN[C@@H]2CCCC[C@@H]2O)cc1Cl
< 5 | CCOc1cc(O[C@H]2CCc3c(-c4cccc(OCCCN5CCC[C@@H]5C(C)C)c4C)cccc32)c(Cl)cc1CNC[C@@H]1CCC(=O)N1
< 5 | Cc1c(OCCCN2CCC(C)CC2)cccc1-c1cccc2c1CC[C@@H]2Oc1cc(OCc2cc(C#N)cc(C#N)c2)c(CNC[C@@H]2CCC(=O)N2)cc1Cl
< 5 | N#Cc1cncc(COc2cc(O[C@H]3CCc4c(-c5cccc(OCCCN6CC(O)C6)c5Cl)cccc43)c(Cl)cc2CN2CC3(CC(O)C3)C2)c1
< 5 | Cc1c(OCCCN2CCC(C)(O)CC2)cccc1-c1cccc2c1CC[C@@H]2Oc1cc(OCc2cc(C#N)cc(C#N)c2)c(CNC[C@@H]2CCC(=O)N2)cc1Cl
5 to 500 | CCOc1cc(O[C@H]2CCc3c(-c4cccc(OCCCN5CC[C@@H](O)C5)c4C)cccc32)c(Cl)cc1CN1CCCC[C@H]1C(=O)O
5 to 500 | Cc1c(OCCCN2CCCCC2(C)C)cccc1-c1cccc2c1CC[C@@H]2Oc1cc(OCc2cc(C#N)cc(C#N)c2)c(CNC[C@H]2CCC(=O)N2)cc1Cl
< 5 | Cc1c(OCCCN2CCC(F)CC2)cccc1-c1cccc2c1CC[C@@H]2Oc1cc(OCc2cncc(C#N)c2)c(CNC[C@H]2CCC(=O)N2)cc1Cl
< 5 | C[C@@H](O)[C@H](NCc1cc(Cl)c(O[C@H]2CCc3c(-c4cccc(OCCCN5CCCCC5)c4Cl)cccc32)cc1OCc1cncc(C#N)c1)C(=O)NS(C)(=O)=O
< 5 | C[C@@](CO)(NCc1cc(Cl)c(O[C@@H]2c3cccc(-c4cccc(OCCCN5CC(F)C5)c4Cl)c3C[C@@H]2F)cc1OCc1cncc(C#N)c1)C(=O)O
5 to 500 | CCOc1cc(O[C@H]2CCc3c(-c4cccc(OCCCN5CCC5(C)C)c4C)cccc32)c(Cl)cc1CN(C)CCCCC(=O)OC

IC50 [nM] | SMILES
5 to 500 | CC1(F)CCN(CCCOc2cccc(-c3cccc4c3CC[C@@H]4Oc3cc(OCc4cc(C#N)cc(C#N)c4)c(CN[C@H]4CCC(=O)NC4)cc3Cl)c2Cl)CC1
5 to 500 | CCOc1cc(O[C@@H]2c3cccc(-c4cccc(OCCCN5CCC(C)(F)CC5)c4C)c3C[C@@H]2F)c(Cl)cc1CNC[C@@H]1CCC(=O)N1
< 5 | Cc1c(OCCCN2CCC(O)CC2)cccc1-c1cccc2c1C[C@H](F)[C@@H]2Oc1cc(OCc2cncc(C#N)c2)c(CN[C@H](C(=O)O)[C@@H](C)O)cc1Cl
< 5 | Cc1c(OCCCN2CCC(O)CC2)cccc1-c1cccc2c1CC[C@@H]2Oc1cc(OCc2cncc(C#N)c2)c(CN[C@H](C(=O)O)[C@@H](C)O)cc1Cl
< 5 | Cc1c(OCCCN2CCC(CO)CC2)cccc1-c1cccc2c1CC[C@@H]2Oc1cc(OCc2cncc(C#N)c2)c(CN[C@H](C(=O)O)[C@@H](C)O)cc1Cl
500 to 20000 | CCOc1cc(O[C@H]2CCc3c(-c4cccc(OCCCN5CCC5(C)C)c4C)cccc32)c(Cl)cc1CN(C)CC(C)C(=O)OC (stereo partly drawn)
5 to 500 | Cc1c(OCCCN2CCC(C)(F)CC2)cccc1-c1cccc2c1CC[C@@H]2Oc1cc(OCc2cc(C#N)cc(C#N)c2)c(CNC[C@@H]2CCC(=O)N2)cc1Cl
< 5 | N#Cc1cncc(COc2cc(O[C@H]3CCc4c(-c5cccc(OCCCN6CCC(O)CC6)c5Cl)cccc43)c(Cl)cc2CNC[C@H]2CCC(=O)N2)c1
5 to 500 | CCOc1cc(O[C@H]2CCc3c(-c4cccc(OCCCN5CCC5(C)C)c4C)cccc32)c(Cl)cc1CNC[C@H]1CCC(=O)N1
5 to 500 | N#Cc1cncc(COc2cc(O[C@H]3CCc4c(-c5cccc(OCCCN6CC(F)(F)C6)c5Cl)cccc43)c(Cl)cc2CNC[C@@H]2CCC(=O)N2)c1
5 to 500 | COc1cc(O[C@H]2CCc3c(-c4cccc(OCCCN5CC(O)C5)c4Cl)cccc32)cc(OC)c1CN[C@@](C)(CO)C(=O)O
5 to 500 | Cc1c(OCCCN2CCC(F)CC2)cccc1-c1cccc2c1CC[C@@H]2Oc1cc(OCc2cc(C#N)cc(C#N)c2)c(CN2CCC3(C2)NC(=O)NC3=O)cc1Cl (stereo partly drawn)
< 5 | CCOc1cc(O[C@H]2CCc3c(-c4cccc(OCCCN5CC(O)C5)c4Cl)cccc32)c(Cl)cc1CN[C@@](C)(CO)C(=O)O
5 to 500 | CCOc1cc(O[C@H]2CCc3c(-c4cccc(OCCCN5CCC5(C)C)c4C)cccc32)c(Cl)cc1CNCCB(O)O
< 5 | Cc1c(OCCCN2CCCCC2)cccc1-c1cccc2c1CC[C@@H]2Oc1cc(OCc2cncc(C#N)c2)c(CNC[C@@H]2CCC(=O)N2)cc1Cl
< 5 | Cc1c(OCCCN2CCCCC2)cccc1-c1cccc2c1CC[C@@H]2Oc1cc(OCc2cc(C#N)cc(C#N)c2)c(CN[C@@H]2CCCC[C@@H]2O)cc1Cl
5 to 500 | Cc1c(OCCCN2CCC(F)CC2)cccc1-c1cccc2c1CC[C@@H]2Oc1cc(OCc2cncc(C#N)c2)c(CNCC2CCC(=O)N2C)cc1Cl (stereo partly drawn)
< 5 | C[C@@H](O)[C@H](NCc1cc(Cl)c(O[C@H]2CCc3c(-c4cccc(OCCCN5CCC(F)CC5)c4Cl)cccc32)cc1OCc1cncc(C#N)c1)C(=O)NS(C)(=O)=O
< 5 | Cc1c(OCCCN2CCC(O)CC2)cccc1-c1cccc2c1CC[C@@H]2Oc1cc(OCc2cncc(C#N)c2)c(CN[C@H](C(N)=O)[C@@H](C)O)cc1Cl

IC50 [nM] | SMILES
< 5 | Cc1c(OCCCN2CCC(O)CC2)cccc1-c1cccc2c1CC[C@@H]2Oc1cc(OCc2cncc(C#N)c2)c(CNCC2CCC(=O)N2)cc1Cl (stereo partly drawn)
< 5 | N#Cc1cncc(COc2cc(O[C@H]3CCc4c(-c5cccc(OCCCN6CCC(F)CC6)c5Cl)cccc43)c(Cl)cc2CN2CC[C@@H](F)C2)c1
< 5 | N#Cc1cncc(COc2cc(O[C@H]3CCc4c(-c5cccc(OCCCN6CC7(CC(O)C7)C6)c5Cl)cccc43)c(Cl)cc2CN[C@@H]2CCC[C@H]2O)c1
5 to 500 | CCOc1cc(O[C@H]2CCc3c(-c4cccc(OCCCN5CCC5(C)C)c4C)cccc32)c(Cl)cc1CN1CC(C(=O)O)C1
< 5 | Cc1c(OCCCN2CCC(O)CC2)cccc1-c1cccc2c1CC[C@@H]2Oc1cc(OCc2cncc(C#N)c2)c(CN2CCC(C)(O)CC2)cc1Cl
5 to 500 | CCOc1cc(O[C@H]2CCc3c(-c4cccc(OCCCN5CCC5(C)C)c4C)cccc32)c(Cl)cc1CN(C)CCC(=O)OC(C)C
500 to 20000 | CCOc1cc(O[C@H]2CCc3c(-c4cccc(OCCCN5CCC5(C)C)c4C)cccc32)c(Cl)cc1CN(C)CCC(=O)OC(C)(C)C
< 5 | C[C@@](CO)(NCc1cc(Cl)c(O[C@H]2CCc3c(-c4cccc(OCCCN5CCC(O)CC5)c4F)cccc32)cc1OCc1cncc(C#N)c1)C(=O)O
< 5 | N#Cc1cncc(COc2cc(O[C@H]3CCc4c(-c5cccc(OCCCN6CCC6)c5Cl)cccc43)c(Cl)cc2CNC[C@@H]2CCC(=O)N2)c1
5 to 500 | CCOc1cc(O[C@H]2CCc3c(-c4cccc(OCCCN5CCC5(C)C)c4C)cccc32)c(Cl)cc1CN1CC(C#N)C1
< 5 | CC(CO)(NCc1cc(Cl)c(O[C@H]2CCc3c(-c4cccc(OCCCN5CC(F)C5)c4Cl)cccc32)cc1OCc1cncc(C#N)c1)C(=O)O (stereo partly drawn)
< 5 | N#Cc1cncc(COc2cc(O[C@H]3CCc4c(-c5cccc(OCCCN6CC7(CC(O)C7)C6)c5Cl)cccc43)c(Cl)cc2CN[C@@H]2CCC[C@@H]2O)c1
5 to 500 | CCOc1cc(O[C@H]2CCc3c(-c4cccc(OCCCN5CCC5(C)C)c4C)cccc32)c(Cl)cc1CN(CC)CCC(=O)OC
5 to 500 | N#Cc1cncc(COc2cc(O[C@H]3CCc4c(-c5cccc(OCCCN6CC(O)C6)c5C(F)(F)F)cccc43)c(Cl)cc2CNCC2CCC(=O)N2)c1 (stereo partly drawn)
< 5 | N#Cc1cncc(COc2cc(O[C@H]3CCc4c(-c5cccc(OCCCN6CC[C@@H](F)C6)c5Cl)cccc43)c(Cl)cc2CN[C@@H]2CCCC[C@@H]2O)c1
< 5 | Cc1c(OCCCN2CCC(O)CC2)cccc1-c1cccc2c1C[C@@H](F)[C@@H]2Oc1cc(OCc2cncc(C#N)c2)c(CN[C@@H](CO)C(=O)O)cc1Cl
< 5 | C[C@@H](O)[C@H](NCc1cc(Cl)c(O[C@H]2CCc3c(-c4cccc(OCCCN5CCC(O)CC5)c4Cl)cccc32)cc1OCc1cncc(C#N)c1)C(=O)O
< 5 | Cc1c(OCCCN2CCC(F)CC2)cccc1-c1cccc2c1CC[C@@H]2Oc1cc(OCc2cncc(C(N)=O)c2)c(CN(C)CCC(=O)O)cc1Cl
5 to 500 | CCOc1cc(O[C@@H]2c3cccc(-c4cccc(OCCCN5CCC(F)CC5)c4Cl)c3C[C@@H]2F)c(Cl)cc1CN[C@@H]1CCCC[C@@H]1O
